Calls of active or inactive are those of the source.
Columns and labels:
[1] = target: T1, DNA repair and recombination protein RAD54-like (Homo sapiens, UniProt Q92698); experiment: inhibitors of human RAD54 branch migration, confirmation, biochemical, fluorescence, cherry-picked samples, dose series (AID 651657); format: functional
T1 sequence (Q92698 whole entry): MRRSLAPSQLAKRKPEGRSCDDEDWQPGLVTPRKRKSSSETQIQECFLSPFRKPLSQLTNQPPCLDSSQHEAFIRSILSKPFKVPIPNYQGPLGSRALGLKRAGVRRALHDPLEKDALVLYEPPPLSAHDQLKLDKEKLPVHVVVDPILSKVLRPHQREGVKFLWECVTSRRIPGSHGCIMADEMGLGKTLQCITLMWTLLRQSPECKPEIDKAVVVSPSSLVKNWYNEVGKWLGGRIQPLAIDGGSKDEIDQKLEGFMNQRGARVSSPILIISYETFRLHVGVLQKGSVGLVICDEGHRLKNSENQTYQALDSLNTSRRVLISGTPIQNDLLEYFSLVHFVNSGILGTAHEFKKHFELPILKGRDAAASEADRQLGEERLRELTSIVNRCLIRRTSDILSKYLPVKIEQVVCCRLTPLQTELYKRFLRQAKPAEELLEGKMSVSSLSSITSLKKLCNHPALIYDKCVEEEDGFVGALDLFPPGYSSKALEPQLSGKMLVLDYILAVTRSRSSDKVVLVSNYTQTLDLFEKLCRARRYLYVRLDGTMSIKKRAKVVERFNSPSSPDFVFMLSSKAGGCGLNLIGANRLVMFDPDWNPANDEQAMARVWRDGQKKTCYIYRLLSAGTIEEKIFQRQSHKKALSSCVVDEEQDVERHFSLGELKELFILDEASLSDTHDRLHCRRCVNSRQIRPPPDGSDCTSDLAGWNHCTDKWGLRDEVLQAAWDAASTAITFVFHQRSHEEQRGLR

[2] = target: T2, Zinc finger protein mex-5 (Caenorhabditis elegans, UniProt Q9XUB2); experiment: MEX-5/TCR-2 RNA interaction inhibitors, dose response, biochemical, C. elegans, fluorescence polarization (AID 1960)
T2 sequence (Q9XUB2 whole entry): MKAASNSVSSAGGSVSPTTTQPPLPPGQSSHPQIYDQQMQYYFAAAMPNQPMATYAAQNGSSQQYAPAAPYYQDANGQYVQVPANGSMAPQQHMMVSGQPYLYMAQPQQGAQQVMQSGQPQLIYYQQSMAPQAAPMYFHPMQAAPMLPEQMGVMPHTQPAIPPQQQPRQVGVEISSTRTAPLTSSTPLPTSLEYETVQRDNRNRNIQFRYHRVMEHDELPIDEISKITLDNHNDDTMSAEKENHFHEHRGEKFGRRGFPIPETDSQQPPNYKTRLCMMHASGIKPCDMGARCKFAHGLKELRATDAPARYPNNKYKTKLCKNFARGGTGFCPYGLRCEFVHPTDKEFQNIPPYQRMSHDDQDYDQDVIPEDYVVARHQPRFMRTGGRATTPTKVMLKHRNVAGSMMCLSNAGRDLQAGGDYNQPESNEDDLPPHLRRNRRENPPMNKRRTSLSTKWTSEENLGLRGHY

[3] = target: T3, RNA-binding protein pos-1 (Caenorhabditis elegans, UniProt G5EF15); experiment: inhibitors of POS-1/mex-3 RNA binding, dose response, biochemical, fluorescence polarization (AID 1964);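 note: purified POS-1 fused to maltose binding protein made in E. coli; potency of compounds blocking POS-1 binding to fluorescent RNA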
T3 sequence (G5EF15 whole entry): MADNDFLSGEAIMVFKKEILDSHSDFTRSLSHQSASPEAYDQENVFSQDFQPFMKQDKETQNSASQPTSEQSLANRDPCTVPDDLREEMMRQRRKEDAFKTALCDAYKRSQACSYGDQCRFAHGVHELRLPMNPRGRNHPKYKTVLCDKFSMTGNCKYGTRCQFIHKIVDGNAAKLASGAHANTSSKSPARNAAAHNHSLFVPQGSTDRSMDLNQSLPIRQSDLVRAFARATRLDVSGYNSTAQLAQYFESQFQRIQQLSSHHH

Cytochrome P450 1A2 = target: T4, Cytochrome P450 1A2 (Homo sapiens, UniProt P05177);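 note: PubChem cytochrome P450 panel assay, CYP1A2 panel member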
T4 sequence (P05177 whole entry): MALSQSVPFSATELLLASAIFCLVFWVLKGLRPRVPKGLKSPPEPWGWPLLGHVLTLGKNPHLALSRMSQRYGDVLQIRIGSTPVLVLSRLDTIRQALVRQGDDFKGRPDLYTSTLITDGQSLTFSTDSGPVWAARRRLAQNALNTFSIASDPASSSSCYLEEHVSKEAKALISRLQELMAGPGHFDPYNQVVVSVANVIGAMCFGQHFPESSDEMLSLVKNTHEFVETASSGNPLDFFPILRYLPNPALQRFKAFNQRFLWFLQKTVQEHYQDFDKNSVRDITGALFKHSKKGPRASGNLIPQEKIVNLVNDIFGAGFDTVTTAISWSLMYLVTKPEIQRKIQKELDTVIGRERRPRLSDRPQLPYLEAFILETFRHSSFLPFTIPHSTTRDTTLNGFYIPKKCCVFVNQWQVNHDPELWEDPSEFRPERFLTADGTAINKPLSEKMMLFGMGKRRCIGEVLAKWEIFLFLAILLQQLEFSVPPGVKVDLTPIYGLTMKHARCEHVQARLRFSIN

Cytochrome P450 2C9 = Cytochrome P450 2C9 (Homo sapiens, UniProt P11712)
Chain of Cytochrome P450 2C9 (P11712 whole entry): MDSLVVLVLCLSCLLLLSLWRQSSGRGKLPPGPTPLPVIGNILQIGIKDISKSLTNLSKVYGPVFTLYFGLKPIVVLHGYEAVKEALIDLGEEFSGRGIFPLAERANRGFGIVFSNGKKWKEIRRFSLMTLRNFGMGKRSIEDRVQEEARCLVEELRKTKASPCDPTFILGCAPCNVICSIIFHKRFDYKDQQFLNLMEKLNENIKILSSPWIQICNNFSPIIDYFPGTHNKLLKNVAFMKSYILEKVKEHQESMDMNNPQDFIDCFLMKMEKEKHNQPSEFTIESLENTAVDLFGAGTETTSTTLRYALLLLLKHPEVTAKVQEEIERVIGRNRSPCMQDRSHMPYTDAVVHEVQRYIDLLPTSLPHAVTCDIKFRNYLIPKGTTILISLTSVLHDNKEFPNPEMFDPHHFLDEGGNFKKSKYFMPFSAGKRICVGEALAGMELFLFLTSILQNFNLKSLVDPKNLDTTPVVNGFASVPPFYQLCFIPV

Cytochrome P450 3A4 = Cytochrome P450 3A4 (Homo sapiens, UniProt P08684);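 note: CYP3A4 tested as one member of a cytochrome P450 panel screen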
Chain of Cytochrome P450 3A4 (P08684 whole entry): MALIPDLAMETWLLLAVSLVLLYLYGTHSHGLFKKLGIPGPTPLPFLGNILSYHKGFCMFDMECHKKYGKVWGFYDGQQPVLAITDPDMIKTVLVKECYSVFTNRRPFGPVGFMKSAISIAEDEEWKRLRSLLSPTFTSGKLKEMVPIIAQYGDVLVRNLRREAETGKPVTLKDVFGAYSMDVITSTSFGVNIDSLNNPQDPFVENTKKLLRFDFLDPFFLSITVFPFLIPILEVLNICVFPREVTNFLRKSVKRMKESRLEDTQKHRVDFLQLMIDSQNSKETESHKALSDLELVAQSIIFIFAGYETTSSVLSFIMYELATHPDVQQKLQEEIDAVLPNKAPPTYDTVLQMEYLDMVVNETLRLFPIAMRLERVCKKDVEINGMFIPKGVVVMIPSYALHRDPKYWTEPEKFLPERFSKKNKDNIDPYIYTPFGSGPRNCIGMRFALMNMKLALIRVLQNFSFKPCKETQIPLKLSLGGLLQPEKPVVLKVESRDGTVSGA

[4] = target: T5, DNA repair protein RAD52 homolog (Homo sapiens, UniProt P43351); format: functional, biochemical
T5 sequence (P43351 whole entry): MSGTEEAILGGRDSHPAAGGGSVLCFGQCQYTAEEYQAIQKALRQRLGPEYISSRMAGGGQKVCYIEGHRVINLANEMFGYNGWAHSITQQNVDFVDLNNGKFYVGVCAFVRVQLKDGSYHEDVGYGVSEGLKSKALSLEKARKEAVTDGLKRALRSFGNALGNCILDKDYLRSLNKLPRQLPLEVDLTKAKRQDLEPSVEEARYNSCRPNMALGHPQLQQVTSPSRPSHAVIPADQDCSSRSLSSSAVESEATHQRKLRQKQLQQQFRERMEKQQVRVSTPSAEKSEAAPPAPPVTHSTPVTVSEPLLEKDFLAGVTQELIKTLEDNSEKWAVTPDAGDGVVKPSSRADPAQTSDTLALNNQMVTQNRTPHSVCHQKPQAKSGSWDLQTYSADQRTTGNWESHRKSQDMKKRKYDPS

[5] = A Cell Based Secondary Assay To Explore Cytotoxicity of Compounds that Sensitize Mycobacterium Tuberculosis to Beta-Lactam Antibiotics.; format: functional
Vero [6] = experiment: cells; format: functional; settings: Chlorocebus sabaeus
HEK293 [7] = experiment: NOD1 signaling inhibitors, primary screen, cell-based, luminescence, uHTS (AID 1578); format: functional; settings: Homo sapiens
HEK293 [8] = experiment: NOD2 signaling inhibitors in MDP-stimulated cells, cell-based, uHTS, luminescence (AID 2001); format: functional; settings: Homo sapiens
Vero [9] = experiment: host cell cytotoxicity of antiviral hits, dose response, cytotoxicity control for West Nile virus antiviral project, secondary assay (AID 1650); format: functional; settings: Chlorocebus sabaeus
HEK293 [10] = experiment: cells; format: functional, cell-based; settings: Homo sapiens
HEK293 [11] = experiment: cells; format: functional, cell-based; settings: Homo sapiens; remark: listed apart in the source
Vero [12] = experiment: cells; format: functional, cell-based; settings: Chlorocebus sabaeus
[13] = target: Heat shock protein HSP 90-alpha (Homo sapiens, UniProt P07900); format: functional, organism-based
[14] = target: Glucose-6-phosphate 1-dehydrogenase (Homo sapiens, UniProt P11413); experiment: human G6PD enzyme inhibitors, dose response, selectivity assay for P. falciparum G6PD inhibitor project, biochemical, fluorescence (AID 504792); format: functional
Chain of Glucose-6-phosphate 1-dehydrogenase (P11413 whole entry): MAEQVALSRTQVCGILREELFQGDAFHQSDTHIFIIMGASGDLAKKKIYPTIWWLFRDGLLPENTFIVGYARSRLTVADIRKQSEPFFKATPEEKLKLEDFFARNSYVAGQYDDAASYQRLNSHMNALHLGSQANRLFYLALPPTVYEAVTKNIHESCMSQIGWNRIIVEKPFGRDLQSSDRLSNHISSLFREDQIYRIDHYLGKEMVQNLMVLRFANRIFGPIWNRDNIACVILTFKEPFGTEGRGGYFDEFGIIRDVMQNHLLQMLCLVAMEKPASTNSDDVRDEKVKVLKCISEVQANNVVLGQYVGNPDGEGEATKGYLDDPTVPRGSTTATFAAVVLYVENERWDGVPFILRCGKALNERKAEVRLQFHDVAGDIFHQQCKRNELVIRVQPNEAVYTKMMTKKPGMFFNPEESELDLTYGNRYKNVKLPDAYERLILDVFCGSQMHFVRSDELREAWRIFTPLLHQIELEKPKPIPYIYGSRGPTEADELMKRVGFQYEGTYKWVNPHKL

[15] = target: T6, Probable nicotinate-nucleotide adenylyltransferase (Staphylococcus aureus (strain N315), UniProt P65502); format: functional, Staphylococcus aureus subsp. aureus N315; settings: read-out: IC50_Mean;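 for IC50 Mean: confirmatory dose-response retesting of NadD inhibitor hits first found in an ultra-high-throughput screen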
T6 sequence (P65502 whole entry): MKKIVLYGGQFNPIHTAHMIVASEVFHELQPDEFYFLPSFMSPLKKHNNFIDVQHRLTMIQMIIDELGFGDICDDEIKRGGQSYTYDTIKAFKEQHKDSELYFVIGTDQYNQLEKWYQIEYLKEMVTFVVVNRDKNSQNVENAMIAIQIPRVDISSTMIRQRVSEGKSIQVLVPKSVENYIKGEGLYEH

[16] = target: T7, Rac GTPase-activating protein 1 (Homo sapiens, UniProt Q9H0H5); experiment: MgcRacGAP GTPase-activating activity inhibitors, confirmation, biochemical, ADP Hunter fluorescence, primary and confirmatory (AID 624330); format: functional
T7 sequence (Q9H0H5 whole entry): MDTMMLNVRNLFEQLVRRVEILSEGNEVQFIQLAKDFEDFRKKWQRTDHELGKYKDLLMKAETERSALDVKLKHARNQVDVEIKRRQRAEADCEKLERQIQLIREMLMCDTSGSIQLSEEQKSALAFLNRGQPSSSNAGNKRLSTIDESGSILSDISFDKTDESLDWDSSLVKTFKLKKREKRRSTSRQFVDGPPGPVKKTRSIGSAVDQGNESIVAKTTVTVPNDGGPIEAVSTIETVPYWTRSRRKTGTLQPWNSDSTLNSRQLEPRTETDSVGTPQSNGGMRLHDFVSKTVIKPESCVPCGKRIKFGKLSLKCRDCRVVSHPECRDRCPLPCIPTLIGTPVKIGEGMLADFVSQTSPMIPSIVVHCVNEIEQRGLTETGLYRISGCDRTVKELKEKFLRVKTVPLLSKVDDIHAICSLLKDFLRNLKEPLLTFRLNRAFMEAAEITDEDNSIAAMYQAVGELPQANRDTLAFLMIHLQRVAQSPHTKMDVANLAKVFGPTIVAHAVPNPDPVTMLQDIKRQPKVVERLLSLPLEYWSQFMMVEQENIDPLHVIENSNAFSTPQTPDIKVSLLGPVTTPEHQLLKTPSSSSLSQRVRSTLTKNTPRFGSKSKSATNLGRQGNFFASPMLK

[17] = HeLa cell cytotoxicity, dose response, cytotoxicity control for MgcRacGAP inhibitor project (AID 624300); format: functional
[18] = target: T6, Probable nicotinate-nucleotide adenylyltransferase; format: functional, Staphylococcus aureus subsp. aureus N315
HEK293 [19] = experiment: cytotoxicity in HEK293T NF-kB-Luc cells, SAR follow-up, cytotoxicity control for NF-kB activator project, cell-based, resazurin fluorescence (AID 493251); format: functional; settings: Homo sapiens
P388 = experiment: cells; format: functional; settings: Mus musculus
SN12K1 = experiment: cells; format: functional; settings: Homo sapiens
P388/ADR = experiment: cells; format: functional; settings: Mus musculus
[20] = target: T8, Hepatocyte nuclear factor 4-alpha (Homo sapiens, UniProt P41235); format: functional, cell-based;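 note: biochemical luminescence-based dose-response counterscreen measuring inhibition of HNF4 dimerization, run alongside a screen for blockers of ABHD5–perilipin-5 interaction; split luciferase complementation of HNF4 fusion proteins in cell lysate measuring dimerization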
T8 sequence (P41235 whole entry): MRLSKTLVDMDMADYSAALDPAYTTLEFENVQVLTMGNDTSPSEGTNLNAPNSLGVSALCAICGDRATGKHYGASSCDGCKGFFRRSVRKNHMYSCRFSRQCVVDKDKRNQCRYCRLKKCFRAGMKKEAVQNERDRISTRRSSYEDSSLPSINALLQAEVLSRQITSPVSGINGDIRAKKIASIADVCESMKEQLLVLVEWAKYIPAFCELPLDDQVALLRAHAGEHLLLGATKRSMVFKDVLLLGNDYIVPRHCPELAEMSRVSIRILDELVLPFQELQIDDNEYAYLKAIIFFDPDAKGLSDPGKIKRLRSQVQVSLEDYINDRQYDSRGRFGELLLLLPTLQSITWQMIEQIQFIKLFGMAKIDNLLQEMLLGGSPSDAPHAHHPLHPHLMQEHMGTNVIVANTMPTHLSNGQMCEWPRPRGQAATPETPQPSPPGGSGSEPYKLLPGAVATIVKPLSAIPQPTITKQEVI

## CCNC(=O)c1cc2c(=O)n3cccc(C)c3nc2n(CCc2ccccc2)c1=N
[1]
  AC50: 17.9 µM (active)
[2]
  EC50: 30 µM (active)
[3]
  EC50: 4.95 µM (inconclusive)

## CCOC(=O)c1c(NC(=O)c2ccc(S(=O)(=O)N3CCOCC3)cc2)sc2c1CCN(C)C2
[1]
  AC50: 15.3 µM (active)
Cytochrome P450 1A2
  AC50: 12.6 µM (inconclusive)
Cytochrome P450 2C9
  AC50: 14.1 µM (inconclusive)
Cytochrome P450 3A4
  AC50: inconclusive
[4]
  AC50: 11.6 µM (active)

## N=c1c(C(=O)NCCN2CCOCC2)cc2c(=O)n3ccccc3nc2n1CCc1ccccc1
[1]
  AC50: 25.2 µM (active)
[2]
  EC50: > 300 µM (not active)
[4]
  AC50: 10.5 µM (active)
[3]
  EC50: > 300 µM (not active)

## Cn1c(/C=C/c2ccc(Cl)cc2)c([N+](=O)[O-])c(=O)n(C)c1=O
[5]
  CC50: 30 µM (active)
Vero [6]
  CC50: 19.1 µM (active)
HEK293 [7]
  EC50: 16 µM (active)
HEK293 [8]
  IC50: 8.84 µM (active)
Vero [9]
  CC50: 15.7 µM (active)
HEK293 [10]
  IC50: 8.13 µM (active)
HEK293 [11]
  IC50: > 20 µM (inactive)
Vero [12]
  IC50: > 25 µM (active)

## O=[N+]([O-])c1cccc(SSc2cccc([N+](=O)[O-])c2)c1
[13]
  AC50: 4.25 µM (active)
[14]
  IC50: > 80 µM (inactive)
[15]
  IC50: 3.73 µM (active)
[16]
  IC50: 53.9 µM (active)
[17]
  CC50: 100 µM (active)
[18]
  IC50: 1.62 µM (active)

## COc1ccc(-c2nc(CSCC(=O)NC3CC3)c(C)o2)cc1
HEK293 [19]
  IC50: > 80 µM (inactive)

## Cc1ccc2nc3c(C(=O)NCCN(C)C)cccc3cc2c1
P388
  GI50: 0.414 µM (active)
SN12K1
  GI50: 0.968 µM (active)
P388/ADR
  GI50: 1.85 µM (inactive)

## CCCCCNC(=O)C(c1ccc(C(F)(F)F)cc1)n1c(=O)c(-c2ccco2)nc2ccccc21 (stereo not given)
[20]
  IC50: 2.85 µM (active)

## CC1OC1C(=O)C1(O)C(C)C(O)C23OC2(C(O)c2c(O)cccc2C3=O)C1O (stereo not given) [CERVICARCIN]
P388
  GI50: 0.144 µM (active)
SN12K1
  GI50: 0.225 µM (active)
P388/ADR
  GI50: 0.18 µM (active)

## COc1ccc2c3c1O[C@H]1C[C@@H](O)C=C[C@@]31CCN(C)C2 [GALANTAMINE]
P388
  GI50: > 150 µM (inactive)
SN12K1
  GI50: > 150 µM (inactive)
P388/ADR
  GI50: > 150 µM (inactive)

## O=c1cc[nH]c(=O)[nH]1 [URACIL]
P388
  GI50: 164 µM (inactive)
SN12K1
  GI50: 315 µM (inactive)
P388/ADR
  GI50: 292 µM (inactive)

Source: ChEMBL document CHEMBL1201862, “PubChem BioAssay data set” (2004)
